ED50 and IC50 data for seven compounds are collected here from ChEMBL document CHEMBL1131853 (Bioorg Med Chem Lett, 1999).

Broadly, the ED50 is the dose at which the effect has come halfway, by size or by number of responders. Broadly, the IC50 is the concentration that gives 50% inhibition.

For one test, the system named is Mus musculus. Kind of test: Compound was tested in vivo for anticonvulsant activity in DBA/2 mice by i.p. administration. In kind it is functional. Conditions: ip.
Test [1] addresses Sodium channel alpha subunits; brain (Types I, II, III) (Rattus norvegicus, UniProt P04775+P04774+P08104). The test can be described thus: Inhibition of veratridine-induced depolarization in rat cerebrocortical synaptosomes using the voltage sensitive fluorescent dye Rhodamine 6G. In kind it is functional, subcellular.
Test [2] can be described thus: Effect on low-threshold (T-type) Calcium current in primary cultured rat cerebrocortical neurons. In kind it is functional.
Another test concerns the target D(2) dopamine receptor (Rattus norvegicus, UniProt P61169). Kind of test: Inhibition of [3H]raclopride binding to Dopamine receptor D2 of rat striatum membranes. In kind it is cell membranes, Membrane.

Sequence of D(2) dopamine receptor (P61169 whole entry): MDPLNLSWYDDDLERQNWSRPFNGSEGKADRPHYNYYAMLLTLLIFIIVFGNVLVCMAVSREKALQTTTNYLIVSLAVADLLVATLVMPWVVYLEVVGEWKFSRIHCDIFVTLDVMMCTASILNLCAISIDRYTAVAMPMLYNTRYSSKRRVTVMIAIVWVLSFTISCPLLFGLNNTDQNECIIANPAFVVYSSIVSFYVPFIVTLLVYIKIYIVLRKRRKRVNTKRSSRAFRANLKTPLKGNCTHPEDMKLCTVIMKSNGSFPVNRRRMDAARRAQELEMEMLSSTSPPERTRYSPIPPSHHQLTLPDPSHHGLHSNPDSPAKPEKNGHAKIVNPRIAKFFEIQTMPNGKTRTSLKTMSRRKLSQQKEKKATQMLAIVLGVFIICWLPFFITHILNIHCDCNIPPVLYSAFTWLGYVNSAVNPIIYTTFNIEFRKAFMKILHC

Regarding `Cl.Fc1ccc(Cc2ccc(C3CCN(C/C=C/c4ccccc4)CC3)cc2)cc1`, the ED50 in the test on Mus musculus was 2.2 mg/kg. The IC50 in test [1] is 190 nM; in test [2] it was 600 nM.
As for `Cl.OC(COc1ccccc1)CN1CCC(c2ccc(Cc3ccc(F)cc3)cc2)CC1` (centres undefined), in the test on Mus musculus, it took a dose of 7.5 mg/kg to reach the 50% effect level (ED50). The IC50 in test [1] was 360 nM; in test [2], 800 nM; at D(2) dopamine receptor it was more than 10000 nM.
Compound `C(=C\c1ccccc1)/CN1CCC(c2ccc(Oc3ccccc3)cc2)CC1.Cl` gave an ED50 with Mus musculus of 4.2 mg/kg. Besides, the values for the IC50 in test [1] and in test [2] were 320 nM and 800 nM, respectively.
The compound `Cl.O[C@@H](COc1ccccc1)CN1CCC(c2ccc(Oc3ccccc3)cc2)CC1` had an ED50 in the test with Mus musculus of 2.5 mg/kg. For the same compound, the figures for the IC50 (in test [1]; in test [2]; at D(2) dopamine receptor) were 120 nM, 2700 nM and 4080 nM, respectively.
For `Cl.O[C@H](COc1ccccc1)CN1CCC(c2ccc(Oc3ccccc3)cc2)CC1`, in that order: 2.5 mg/kg, 130 nM, 2000 nM and 4340 nM.
The compound `Cl.OC(COc1ccccc1)CN1CCC(c2ccc(Oc3ccccc3)cc2)CC1` (centres undefined) showed an ED50 in the test with Mus musculus of 5 mg/kg. Further, the IC50 worked out at 220 nM in test [1], 3500 nM in test [2] and 4640 nM at D(2) dopamine receptor.
Take `Fc1ccc(C(c2ccc(F)cc2)N2CCN(C/C=C/c3ccccc3)CC2)cc1` [FLUNARIZINE]: in the test with Mus musculus, the ED50 stood at 6.4 mg/kg. Further, in test [2], the IC50 came out at 2200 nM.
